Where “and” joins values, the source holds several entries; their conditions need not be identical. Equal values may be shown once. Read-outs that look alike come from different tables or passages of the source.
Columns and labels:
[1] = target: T1, human MMP-9 (amino acids 107-446) (Homo sapiens, UniProt P14780); assay: MMP dose response assay for determining IC50, MMP-9; type: biochemical; conditions: for IC50: recombinant enzyme, fluorescent-quench substrate 100 nM, read-out: MMP-9; for inhibition at 10 µM: read-out: MMP-9 % inhibition at 10 μM
T1 construct: human MMP-9 (amino acids 107-446); made in house
Experimental: (§1) MMP Dose Response Assay for Determining IC50
(§2) The following method was used for determining IC50 values of different inhibitor compounds against multiple MMP enzymes. Frozen stocks of recombinantly produced MMPs were prepared in assay buffer (50 mM HEPES pH 7.4, 10 mM CaCl2, 0.05% Brij-35). […] Enzyme concentrations in the assay were determined empirically and set such that proteolytic activity was maintained in a linear range over the time-course of the experiment. […] Each concentration for each test compound was tested in triplicate. MMP enzymes were equilibrated with compounds for 1 hour at room temperature, then a fluorescent-quench substrate (Acetyl-Cys(Eu)-Pro-Leu-Gly-Leu-Lys-(QSY7)-Ala-Arg-amide) was added to a final concentration of 100 nM. […] Data was analyzed by first calculating average background value from wells that contained only substrate, and this value was subtracted from the entire plate. The 100%, or maximum value, was determined by averaging control wells that contained enzyme, substrate and DMSO. For each well, the percent of control was calculated by dividing the well value by the average DMSO value obtained above.

[2] = target: T2, human MMP-2 (amino acids 1-660) (Homo sapiens, UniProt P08253); assay: MMP dose response assay for determining IC50, MMP-2; type: biochemical; conditions: for inhibition at 10 µM: read-out: MMP-2 % inhibition at 10 μM
T2 construct: human MMP-2 (amino acids 1-660); made in house
T2 sequence (P08253 110-660): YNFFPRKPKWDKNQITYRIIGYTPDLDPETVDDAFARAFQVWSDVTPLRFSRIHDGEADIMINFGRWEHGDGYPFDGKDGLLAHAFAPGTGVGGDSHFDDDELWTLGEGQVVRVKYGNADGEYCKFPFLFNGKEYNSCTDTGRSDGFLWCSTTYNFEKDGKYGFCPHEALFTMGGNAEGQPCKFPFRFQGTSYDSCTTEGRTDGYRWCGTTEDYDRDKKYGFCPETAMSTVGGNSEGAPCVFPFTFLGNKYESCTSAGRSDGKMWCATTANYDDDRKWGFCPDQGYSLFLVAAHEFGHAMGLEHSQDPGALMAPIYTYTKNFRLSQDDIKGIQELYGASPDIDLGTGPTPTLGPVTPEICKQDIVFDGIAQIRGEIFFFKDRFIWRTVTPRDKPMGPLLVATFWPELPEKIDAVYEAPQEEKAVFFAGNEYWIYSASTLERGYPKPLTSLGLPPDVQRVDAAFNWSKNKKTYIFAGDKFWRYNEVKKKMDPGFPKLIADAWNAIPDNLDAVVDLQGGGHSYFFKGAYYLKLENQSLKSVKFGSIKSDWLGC
Experimental: as §1, §2

[3] = recombinant enzyme, fluorescent-quench substrate 100 nM, read-out: MMP-2

T1 sequence (P14780 107-446): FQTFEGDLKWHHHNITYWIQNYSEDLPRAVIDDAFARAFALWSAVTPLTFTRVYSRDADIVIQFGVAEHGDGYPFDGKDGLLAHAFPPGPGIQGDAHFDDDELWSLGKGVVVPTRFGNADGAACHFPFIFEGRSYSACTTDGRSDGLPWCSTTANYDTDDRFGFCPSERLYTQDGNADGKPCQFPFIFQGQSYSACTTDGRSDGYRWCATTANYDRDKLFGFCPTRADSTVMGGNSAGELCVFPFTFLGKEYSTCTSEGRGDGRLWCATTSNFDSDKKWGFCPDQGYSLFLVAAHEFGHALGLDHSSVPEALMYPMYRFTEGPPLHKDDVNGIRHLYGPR

Row | SMILES | IC50 [1] | IC50 [2, 3] | inhibition at 10 µM [1] | inhibition at 10 µM [2] | IC50 ([2]; MMP-2 (nM))
1 | CC(C)CN(O)C(=O)[C@H](CN(c1ccc(Oc2ccc(C(F)(F)F)cc2)cc1)S(C)(=O)=O)N1CCOCC1 [Example 5, N-Hydroxy,N-(2-methylpropyl)(2S)-2-(morpholin-4-yl)-3-{N-[4-(4-trifluoromethylphenoxy)phenyl],N-methanesulfonylamino}propionamide] | 87.9 nM | 261 nM | – | – | –
2 | Cc1ccc(Oc2ccc(N(C[C@@H](O)C(=O)NO)S(C)(=O)=O)cc2)cc1 [Example 7, N-Hydroxy (2R)-2-hydroxy-3-{N-[4-(4-methylphenoxy)phenyl],N-methanesulfonylamino}propionamide] | 20.6 nM and 3.13 nM | 81.7 nM and 52 nM | – | – | –
3 | Cc1ccc(Oc2ccc(N(C[C@H](O)C(=O)NO)S(C)(=O)=O)cc2)cc1 [Example 8, N-Hydroxy (2S)-2-hydroxy-3-{N-[4-(4-methylphenoxy)phenyl],N-methanesulfonylamino}propionamide] | 10.5 nM and 11.1 nM and 10.1 nM and 3.37 nM and 4.69 nM and 7.57 nM | 88.5 nM and 67.8 nM and 98.2 nM and 65 nM and 51.9 nM and 71.5 nM | – | – | –
4 | CS(=O)(=O)N(C[C@@H](O)C(=O)NO)c1ccc(-c2ccccc2)cc1 [Example 9, N-Hydroxy (2R)-2-hydroxy-3-[N-(4-phenyl)phenyl,N-methanesulfonylamino]propionamide] | – | – | 78.7% | 83.6% | –
5 | CS(=O)(=O)N(C[C@H](O)C(=O)NO)c1ccc(-c2ccccc2)cc1 [Example 10, N-Hydroxy (2S)-2-hydroxy-3-[N-(4-phenyl)phenyl,N-methanesulfonylamino]propionamide] | – | – | 79% | 87% | –
6 | COc1ccc(N[C@@H](CN(c2ccc(Oc3ccc(C)cc3)cc2)S(C)(=O)=O)C(=O)NO)cc1 [Example 48, N-Hydroxy (2S)-2-(4-methoxyphenyl)amino-3-{N-[4-(4-methylphenoxy)phenyl],N-methanesulfonylamino}propionamide] | 0.69 nM | 18.5 nM | – | – | –
7 | Cc1ccc(Sc2ccc(N(C[C@H](O)C(=O)NO)S(C)(=O)=O)cc2)cc1 [Example 49, N-Hydroxy (2S)-2-hydroxy-3-{N-[4-(4-methylthiophenoxy)phenyl],N-methanesulfonylamino}propionamide] | 62.8 nM and 44.5 nM | 274 nM and 321 nM | – | – | –
8 | Cc1ccc(Oc2ccc(N(C[C@H](Nc3ccc(OC(F)(F)F)cc3)C(=O)NO)S(C)(=O)=O)cc2)cc1 [Example 50, N-Hydroxy (2S)-3-{N-[4-(4-methylphenoxy)phenyl],N-methanesulfonylamino}-2-(4-trifluoromethoxyphenyl)aminopropionamide] | 73.6 nM | 877 nM | – | – | –
9 | COc1cccc(N[C@@H](CN(c2ccc(Oc3ccc(C)cc3)cc2)S(C)(=O)=O)C(=O)NO)c1 [Example 51, N-Hydroxy (2S)-2-(3-methoxyphenyl)amino-3-{N-[4-(4-methylphenoxy)phenyl],N-methanesulfonylamino}propionamide] | 0.62 nM | 26.8 nM | – | – | –
10 | Cc1ccc(Oc2ccc(N(C[C@H](Nc3cccc(OC(F)(F)F)c3)C(=O)NO)S(C)(=O)=O)cc2)cc1 [Example 52, N-Hydroxy (2S)-3-{N-[4-(4-methylphenoxy)phenyl],N-methanesulfonylamino}-2-(3-trifluoromethoxyphenyl)aminopropionamide] | 165 nM | 1080 nM | – | – | –
11 | CS(=O)(=O)N(C[C@H](O)C(=O)NO)c1ccc(Oc2ccc(C(F)(F)F)cn2)cc1 [Example 53, N-Hydroxy (2S)-2-hydroxy-3-{N-{4-[(5-trifluoromethylpyridin-2-yl)oxy]phenyl},N-methanesulfonylamino}propionamide] | 472 nM | – | – | – | –
12 | CS(=O)(=O)N(C[C@H](O)C(=O)NO)c1ccc(Oc2ccc(C(F)(F)F)cc2)cc1 [Example 54, N-Hydroxy (2S)-2-hydroxy-3-{N-[4-(4-trifluoromethylphenoxy)phenyl],N-methanesulfonylamino}propionamide] | 17.2 nM and 10.7 nM | 175 nM and 102 nM | – | – | –
13 | CS(=O)(=O)N(C[C@H](Nc1cccc(F)c1)C(=O)NO)c1ccc(Oc2ccc(C(F)(F)F)cn2)cc1 [Example 55, N-Hydroxy (2S)-2-(3-fluorophenyl)amino-3-{N-{4-[(5-trifluoromethylpyridin-2-yl)oxy]phenyl},N-methanesulfonylamino}propionamide] | 410 nM | 1560 nM | – | – | –
14 | CC(C)N[C@@H](CN(c1ccc(Oc2ccc(C(F)(F)F)cn2)cc1)S(C)(=O)=O)C(=O)NO [Example 56, N-Hydroxy (2S)-2-(2-propyl)amino-3-{N-{4-[(5-trifluoromethylpyridin-2-yl)oxyl]phenyl},N-methanesulfonylamino}propionamide] | 144 nM | 396 nM | – | – | –
15 | CS(=O)(=O)N(C[C@@H](C(=O)NO)N1CCOCC1)c1ccc(Oc2ccc(C(F)(F)F)cn2)cc1 [Example 57, N-Hydroxy (2S)-2-(morpholin-4-yl)-3-{N-{4-[(5-trifluoromethylpyridin-2-yl)oxy]phenyl},N-methanesulfonylamino}propionamide] | 227 nM | 406 nM | – | – | –
16 | CC(C)N[C@@H](CN(c1ccc(Oc2ccc(C(F)(F)F)cc2)cc1)S(C)(=O)=O)C(=O)NO [Example 58, N-Hydroxy (2S)-2-(2-propyl)amino-3-{N-[4-(4-trifluoromethylphenoxy)phenyl],N-methanesulfonylamino}propionamide] | 2.37 nM | 9.16 nM | – | – | –
17 | CS(=O)(=O)N(C[C@H](Nc1cccc(F)c1)C(=O)NO)c1ccc(Oc2ccc(C(F)(F)F)cc2)cc1 [Example 59, N-Hydroxy (2S)-2-(3-fluorophenyl)amino-3-{N-[4-(4-trifluoromethylphenoxy)phenyl],N-methanesulfonylamino}propionamide] | 31.9 nM | 466 nM | – | – | –
18 | COc1ccc(C#Cc2ccc(N(C[C@H](O)C(=O)NO)S(C)(=O)=O)cc2)cc1 [Example 61, N-Hydroxy (2S)-2-hydroxy-3-{N-[4-(4-methoxyphenylacetylene)phenyl],N-methanesulfonylamino}propionamide] | 91 nM | – | – | – | 31.6 nM
19 | CS(=O)(=O)N(C[C@@H](C(=O)NO)N1CCC(O)CC1)c1ccc(Oc2ccc(Cl)cc2)cc1 [Example 88, N-Hydroxy (2S)-3-{N-[4-(4-chlorophenoxy)phenyl],N-methanesulfonylamino}-2-(4-hydroxypiperidin-1-yl)propionamide] | 0.9 nM | 3.13 nM | – | – | –
20 | CS(=O)(=O)N(C[C@@H](C(=O)NO)N1CCOCC1)c1ccc(Oc2ccc(Cl)cc2)cc1 [Example 89, N-Hydroxy (2S)-2-(morpholin-4-yl)-3-{N-[4-(4-chlorophenoxy)phenyl],N-methanesulfonylamino}propionamide] | 2 nM | 5.52 nM | – | – | –
21 | CS(=O)(=O)N(C[C@H](O)C(=O)NO)c1ccc(Sc2ccc(F)cc2)cc1 [Example 90, N-Hydroxy (2S)-2-hydroxy-3-{N-[4-(4-fluorothiophenoxy)phenyl],N-methanesulfonylamino}propionamide] | 64.4 nM and 39.2 nM | 312 nM and 254 nM | – | – | –
22 | CC(C)N1CCN([C@@H](CN(c2ccc(Oc3ccc(Cl)cc3)cc2)S(C)(=O)=O)C(=O)NO)CC1 [Example 91, N-Hydroxy (2S)-3-{N-[4-(4-chlorophenoxy)phenyl],N-methanesulfonylamino}-2-[4-(2-propyl)piperazin-1-yl]Propionamide] | 3.11 nM | 8.77 nM | – | – | –
